According to publication PMC8776063, “Aurora Kinase A Is Involved in Controlling the Localization of Aquaporin-2 in Renal Principal Cells” (International Journal of Molecular Sciences, 2022):
Like-named read-outs stand apart in the source and are kept apart here.

What was measured:
[1] = system: complex of AURKA and TPX2; design: method as in PMID 26732741; conditions: cited from earlier work
[2] = target: T1, CASK (Homo sapiens, UniProt O14936); test: Thermal shift assay; format: binding; conditions: read-out: ΔTm CASK
T1 construct: purchased in-house thermal shift (DSF) kinase panel (SGC Frankfurt); Promega NanoBRET for AURKA/B/C
T1 sequence (O14936 1-337): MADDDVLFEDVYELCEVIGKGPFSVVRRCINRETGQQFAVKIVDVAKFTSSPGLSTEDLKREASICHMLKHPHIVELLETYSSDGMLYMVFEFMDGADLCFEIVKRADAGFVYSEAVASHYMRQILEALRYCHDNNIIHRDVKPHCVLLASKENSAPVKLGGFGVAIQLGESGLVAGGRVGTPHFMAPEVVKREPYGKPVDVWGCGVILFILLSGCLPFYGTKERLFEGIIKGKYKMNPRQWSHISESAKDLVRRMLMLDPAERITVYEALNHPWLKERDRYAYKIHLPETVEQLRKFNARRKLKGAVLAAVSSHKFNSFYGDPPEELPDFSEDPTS

[3] = target: T2, FES (Homo sapiens, UniProt P07332); test: Thermal shift assay; format: binding; conditions: read-out: ΔTm FES
T2 construct: purchased in-house thermal shift (DSF) kinase panel (SGC Frankfurt); Promega NanoBRET for AURKA/B/C

[4] = system: MCD4 cells; test: F-actin stress fiber staining (phalloidin); format: cell-based, mouse; conditions: compound 30 µM, 1 h
[5] = system: HCT116; design: method as in PMID 19402633, PMID 30097580; conditions: colon cancer cell line HCT116; cited from earlier work
[6] = target: T3, STK38L (Homo sapiens, UniProt Q9Y2H1); test: Thermal shift assay; format: binding; conditions: read-out: ΔTm STK38L
T3 construct: purchased in-house thermal shift (DSF) kinase panel (SGC Frankfurt); Promega NanoBRET for AURKA/B/C

[7] = system: AURKA; conditions: cited from earlier work
[8] = system: CFL1 phosphorylation in primary IMCD cells; test: CFL1 phosphorylation, Western blotting; format: cell-based, rat; conditions: compound 20 µM, 1 h
[9] = system: ARID1A-deficient colorectal cancer cells; design: method as in PMID 30097580; conditions: cited from earlier work
[10] = target: T4, AURKC (Homo sapiens, UniProt Q9UQB9); test: NanoBRET assay in HEK293T cells; format: cell-based
T4 construct: full-length wild-type AURKA, AURKB, and AURKC were obtained as plasmids cloned in frame with a C-terminal NanoLuc-fusion; host or cells: HEK293T
T4 sequence (Q9UQB9 1-309): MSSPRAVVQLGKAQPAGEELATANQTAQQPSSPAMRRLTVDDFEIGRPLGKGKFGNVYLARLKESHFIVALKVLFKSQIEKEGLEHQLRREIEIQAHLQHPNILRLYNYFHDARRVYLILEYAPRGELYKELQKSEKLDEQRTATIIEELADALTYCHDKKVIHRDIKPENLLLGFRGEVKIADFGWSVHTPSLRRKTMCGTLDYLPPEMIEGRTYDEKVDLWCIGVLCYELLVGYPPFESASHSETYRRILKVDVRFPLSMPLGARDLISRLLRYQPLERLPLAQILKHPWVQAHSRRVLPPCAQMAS

[11] = NanoBRET, n = 2, mean, Figure 6B, read-out: affinity to intracellular AURKC

T2 sequence (P07332 whole entry): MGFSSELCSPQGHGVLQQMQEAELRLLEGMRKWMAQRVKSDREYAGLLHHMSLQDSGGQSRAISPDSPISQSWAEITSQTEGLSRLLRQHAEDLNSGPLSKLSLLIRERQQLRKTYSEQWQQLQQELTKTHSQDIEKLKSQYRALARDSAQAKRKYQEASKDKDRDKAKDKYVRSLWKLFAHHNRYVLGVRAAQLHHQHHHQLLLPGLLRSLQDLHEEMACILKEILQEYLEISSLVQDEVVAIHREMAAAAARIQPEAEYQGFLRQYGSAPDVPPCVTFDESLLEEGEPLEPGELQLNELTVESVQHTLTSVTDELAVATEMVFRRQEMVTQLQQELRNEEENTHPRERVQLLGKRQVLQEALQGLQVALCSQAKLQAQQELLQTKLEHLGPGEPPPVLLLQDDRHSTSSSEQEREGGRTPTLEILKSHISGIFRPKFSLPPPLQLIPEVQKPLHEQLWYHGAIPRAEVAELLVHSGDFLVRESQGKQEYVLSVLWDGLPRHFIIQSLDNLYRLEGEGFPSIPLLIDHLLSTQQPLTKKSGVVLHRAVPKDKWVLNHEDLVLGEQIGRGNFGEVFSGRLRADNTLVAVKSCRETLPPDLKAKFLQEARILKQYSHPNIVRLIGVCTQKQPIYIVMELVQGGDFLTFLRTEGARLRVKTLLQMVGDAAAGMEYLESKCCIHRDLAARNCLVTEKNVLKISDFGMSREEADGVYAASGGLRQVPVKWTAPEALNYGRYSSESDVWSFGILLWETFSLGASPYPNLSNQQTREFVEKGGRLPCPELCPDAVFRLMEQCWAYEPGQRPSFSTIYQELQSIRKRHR
T3 sequence (Q9Y2H1 90-453): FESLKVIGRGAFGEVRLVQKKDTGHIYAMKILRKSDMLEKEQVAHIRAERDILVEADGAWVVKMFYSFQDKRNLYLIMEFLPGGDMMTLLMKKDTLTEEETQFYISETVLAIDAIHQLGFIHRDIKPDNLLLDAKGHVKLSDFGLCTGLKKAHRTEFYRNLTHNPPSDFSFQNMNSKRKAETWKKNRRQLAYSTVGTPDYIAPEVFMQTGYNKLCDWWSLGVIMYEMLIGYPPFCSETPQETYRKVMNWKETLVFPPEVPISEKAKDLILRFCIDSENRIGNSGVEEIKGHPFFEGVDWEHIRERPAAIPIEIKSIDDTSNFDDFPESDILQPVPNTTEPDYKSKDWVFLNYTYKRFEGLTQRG

| IC50 [10, 11] | SMILES | increase of binding to the AURKA-TPX2 complex [1] | ΔTm at 10 µM [2] | ΔTm at 10 µM [3] | effect on actin stress fibers [4] | antiproliferative effects [5] | ΔTm at 10 µM [6] | IC50 ([7]; cell-free assay) | selectivity for AURKA over AURKB [7] | CFL1 phosphorylation [8] | cell cycle arrest, multinucleation and apoptosis [9] | IC50 [10] | ΔTm at 10 µM ([2]; compound 10 µM, n = 3) | ΔTm at 10 µM ([3]; compound 10 µM, n = 3) | ΔTm at 10 µM ([6]; compound 10 µM, n = 3) | IC50 ([10]; NanoBRET, n = 2, Figure 6B, bounds, read-out: affinity to intracellular AURKC) |
| --- | --- | --- | --- | --- | --- | --- | --- | --- | --- | --- | --- | --- | --- | --- | --- | --- |
| – | CCN1CCN(C(=O)Cc2ccc(Nc3ncc(F)c(Nc4ccc(C(=O)Nc5ccccc5Cl)cc4)n3)cc2)CC1 [Aurora-A inhibitor I, reference compound] | 2.4 fold | 0.2 °C | 1.4 °C | depolymerization of actin stress fibers | Antiproliferative effects | 2.1 °C | 0.0034 µM | 1000 fold | Relatively low levels | G2/M cell cycle arrest, multinucleation, and apoptosis | > 50 µM | – | – | – | – |
| 44.5 µM | O=C(Cc1ccc(Nc2ncc(F)c(Nc3ccc(C(=O)Nc4ccccc4Cl)cc3)n2)cc1)NCCN1CCOCC1 [ERJ2-04] | – | – | – | Comparable effects | – | – | – | – | – | – | – | 0.1 °C | 0.5 °C | 1.5 °C | – |
| 12 µM | NC(=O)Cc1ccc(Nc2ncc(F)c(Nc3ccc(C(=O)Nc4ccccc4Cl)cc3)n2)cc1 [ERJ2-06] | – | – | – | Comparable effects | – | – | – | – | – | – | – | 0.1 °C | 1.4 °C | 2.5 °C | – |
| – | CCN1CCN(C(=O)Cc2ccc(Nc3ncc(F)c(Nc4ccc(C(=O)O)cc4)n3)cc2)CC1 [ERJ2-12] | – | – | – | resembled those of the control cells | – | – | – | – | – | – | – | 0 °C | 0.4 °C | 0.2 °C | > 50 µM |

| SMILES | IC50 [10, 11] | increase of binding to the AURKA-TPX2 complex [1] | ΔTm at 10 µM [2] | ΔTm at 10 µM [3] | effect on actin stress fibers [4] | antiproliferative effects [5] | ΔTm at 10 µM [6] | IC50 ([7]; cell-free assay) | selectivity for AURKA over AURKB [7] | CFL1 phosphorylation [8] | cell cycle arrest, multinucleation and apoptosis [9] | IC50 [10] | ΔTm at 10 µM ([2]; compound 10 µM, n = 3) | ΔTm at 10 µM ([3]; compound 10 µM, n = 3) | ΔTm at 10 µM ([6]; compound 10 µM, n = 3) | IC50 ([10]; NanoBRET, n = 2, Figure 6B, bounds, read-out: affinity to intracellular AURKC) |
| --- | --- | --- | --- | --- | --- | --- | --- | --- | --- | --- | --- | --- | --- | --- | --- | --- |
| CCN1CCN(C(=O)Cc2ccc(Nc3ncc(F)c(Nc4ccc(C(=O)Nc5ccccc5)cc4)n3)cc2)CC1 [ERJ2-11] | 46 µM | – | – | – | promoted or maintained the formation of actin stress fibers | – | – | – | – | – | – | – | -0.1 °C | 1.7 °C | 2.6 °C | – |
